Laboratory results published in patent publication US7902373B2 (Pfizer Inc, priority 2006, dated 2011).

Each compound was assayed against human recombinant H-PGDS (Homo sapiens, UniProt O60760) (assay: Fluorescence intensity h-PGDS TBA enzyme assay). Details: Examples up to 622 (and 3a, 3b).
Assay type: biochemical

Chain of human recombinant H-PGDS (O60760 whole entry): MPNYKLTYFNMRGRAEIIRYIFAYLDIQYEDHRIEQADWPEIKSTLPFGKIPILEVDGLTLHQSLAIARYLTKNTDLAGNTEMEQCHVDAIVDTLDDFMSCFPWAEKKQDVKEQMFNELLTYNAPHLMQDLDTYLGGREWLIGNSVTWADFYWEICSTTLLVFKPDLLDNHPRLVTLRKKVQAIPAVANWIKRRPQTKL

IC50 [nM]	Compound
0.625	Cn1nccc1CN1CCC(NC(=O)c2ccc(-c3cccc(F)c3)nc2)CC1 [Example 352, 6-(3-Fluorophenyl)-N-{1-[(1-methyl-1H-pyrazol-5-yl)methyl]piperidin-4-yl}nicotinamide]
0.959	COc1ccc(CN2CCC(NC(=O)c3ccc(-c4cccc(F)c4)nc3)CC2)cn1 [Example 353, 6-(3-Fluorophenyl)-N-{1-[(6-methoxypyridin-3-yl)methyl]piperidin-4-yl}nicotinamide]
2.92	Cc1ccc(CN2CCC(NC(=O)c3ccc(-c4cccc(F)c4)nc3)CC2)cn1 [Example 354, 6-(3-Fluorophenyl)-N-{1-[(6-methylpyridin-3-yl)methyl]piperidin-4-yl}nicotinamide]
0.513	Cc1cc(CN2CCC(NC(=O)c3ccc(-c4cccc(F)c4)nc3)CC2)ccn1 [Example 355, 6-(3-Fluorophenyl)-N-{1-[(2-methylpyridin-4-yl)methyl]piperidin-4-yl}nicotinamide]
2	Cc1c(CN2CCC(NC(=O)c3ccc(-c4cccc(F)c4)nc3)CC2)cnn1-c1ccccc1 [Example 356, 6-(3-Fluorophenyl)-N-{1-[(5-methyl-1-phenyl-1H-pyrazol-4-yl)methyl]piperidin-4-yl}nicotinamide]
6.66	Cc1nc(-c2ccccc2)ncc1CN1CCC(NC(=O)c2ccc(-c3cccc(F)c3)nc2)CC1 [Example 357, 6-(3-Fluorophenyl)-N-{1-[(4-methyl-2-phenylpyrimidin-5-yl)methyl]piperidin-4-yl}nicotinamide]
1.72	O=C(NC1CCN(Cc2ccc(Oc3ccccc3)nc2)CC1)c1ccc(-c2cccc(F)c2)nc1 [Example 358, 6-(3-Fluorophenyl)-N-{1-[(6-phenoxypyridin-3-yl)methyl]piperidin-4-yl}nicotinamide]
0.443	O=C(NC1CCN(Cc2ccno2)CC1)c1ccc(-c2cccc(F)c2)nc1 [Example 359, 6-(3-Fluorophenyl)-N-[1-(isoxazol-5-ylmethyl)piperidin-4-yl]nicotinamide]
1.05	Cc1nn(-c2ccc(F)cc2)c(C)c1CN1CCC(NC(=O)c2ccc(-c3cccc(F)c3)nc2)CC1 [Example 362, 6-(3-Fluorophenyl)-N-(1-{[1-(4-fluorophenyl)-3,5-dimethyl-1H-pyrazol-4-yl]methyl}piperidin-4-yl)nicotinamide]
0.13	COc1ccc(-n2ccnc2CN2CCC(NC(=O)c3ccc(-c4cccc(F)c4)nc3)CC2)cc1 [Example 365, 6-(3-Fluorophenyl)-N-(1-{[1-(4-methoxyphenyl)-1H-imidazol-2-yl]methyl}piperidin-4-yl)nicotinamide]
0.707	O=C(NC1CCN(Cc2cccc(-n3cccn3)c2)CC1)c1ccc(-c2cccc(F)c2)nc1 [Example 367, 6-(3-Fluorophenyl)-N-{1-[3-(1H-pyrazol-1-yl)benzyl]piperidin-4-yl}nicotinamide]
2.36	O=C(NC1CCN(Cc2csc(-c3ccccc3)n2)CC1)c1ccc(-c2cccc(F)c2)nc1 [Example 373, 6-(3-Fluorophenyl)-N-{1-[(2-phenyl-1,3-thiazol-4-yl)methyl]piperidin-4-yl}nicotinamide]
2.99	Cn1cnc(CN2CCC(NC(=O)c3ccc(-c4cccc(F)c4)nc3)CC2)c1 [Example 374, 6-(3-Fluorophenyl)-N-{1-[(1-methyl-1H-imidazol-4-yl)methyl]piperidin-4-yl}nicotinamide]
0.667	O=C(NC1CCN(Cc2cccc(-n3cccn3)n2)CC1)c1ccc(-c2cccc(F)c2)nc1 [Example 375, 6-(3-Fluorophenyl)-N-(1-{[6-(1H-pyrazol-1-yl)pyridin-2-yl]methyl}piperidin-4-yl)nicotinamide]
0.876	Cn1ccnc1-c1ccc(CN2CCC(NC(=O)c3ccc(-c4cccc(F)c4)nc3)CC2)cc1 [Example 376, 6-(3-Fluorophenyl)-N-{1-[4-(1-methyl-1H-imidazol-2-yl)benzyl]piperidin-4-yl}nicotinamide]
0.491	O=C(NC1CCN(Cc2cccn3c(Br)cnc23)CC1)c1ccc(-c2cccc(F)c2)nc1 [Example 377, N-{1-[(3-Bromoimidazo[1,2-a]pyridin-8-yl)methyl]piperidin-4-yl}-6-(3-fluorophenyl)nicotinamide]
1.25	Cc1ccc(-c2cccc(CN3CCC(NC(=O)c4ccc(-c5cccc(F)c5)nc4)CC3)c2)c(N)n1 [Example 380, N-{1-[3-(2-Amino-6-methylpyridin-3-yl)benzyl]piperidin-4-yl}-6-(3-fluorophenyl)nicotinamide]
1.25	Cc1ccn2c(CN3CCC(NC(=O)c4ccc(-c5cccc(F)c5)nc4)CC3)c(C)nc2c1 [Example 383, N-{1-[(2,7-Dimethylimidazo[1,2,a]pyridin-3-yl)methyl]piperidin-4-yl}-6-(3-fluorophenyl)nicotinamide]
0.959	O=C(NC1CCN(Cc2ccn[nH]2)CC1)c1ccc(-c2cccc(F)c2)nc1 [Example 384, 6-(3-Fluorophenyl)-N-[1-(1H-pyrazol-5-ylmethyl)piperidin-4-yl]nicotinamide]
2.23	Cc1nccc(CN2CCC(NC(=O)c3ccc(-c4cccc(F)c4)nc3)CC2)n1 [Example 389, 6-(3-Fluorophenyl)-N-{1-[(2-methylpyrmidin-4-yl)methyl]piperidin-4-yl}nicotinamide]

Continued, compound first:

Compound	IC50 [nM]
Cc1cc(CN2CCC(NC(=O)c3ccc(-c4cccc(F)c4)nc3)CC2)no1 [Example 351, 6-(3-Fluorophenyl)-N-{1-[(5-methylisoxazol-3-yl)methyl]piperidin-4-yl}nicotinamide]	0.531
CCC(C)CCN1CCC(NC(=O)c2ccc(-c3cccc(F)c3)nc2)CC1 (stereo not drawn) [Example 360, 6-(3-Fluorophenyl)-N-[1-(3-methylpentyl)piperidin-4-yl]nicotinamide]	2.76
Cc1nn(C(C)C)c(C)c1CN1CCC(NC(=O)c2ccc(-c3cccc(F)c3)nc2)CC1 [Example 361, 6-(3-Fluorophenyl)-N-{1-[(1-isopropyl-3,5-dimethyl-1H-pyrazol-4-yl)methyl]piperidin-4-yl}nicotinamide]	1.35
O=C(NC1CCN(Cc2ccon2)CC1)c1ccc(-c2cccc(F)c2)nc1 [Example 363, 6-(3-Fluorophenyl)-N-[1-(isoxazol-3-ylmethyl)piperidin-4-yl]nicotinamide]	0.299
COc1ccc(CN2CCC(NC(=O)c3ccc(-c4cccc(F)c4)nc3)CC2)cc1CN(C)C [Example 364, N-(1-{3-[(Dimethylamino)methyl]-4-methoxybenzyl}piperidin-4-yl)-6-(3-fluorophenyl)nicotinamide]	4.03
CC(C)c1cc(CN2CCC(NC(=O)c3ccc(-c4cccc(F)c4)nc3)CC2)n[nH]1 [Example 366]	2.42
Nc1ncc(CN2CCC(NC(=O)c3ccc(-c4cccc(F)c4)nc3)CC2)cn1 [Example 368, N-{1-[(2-Aminopyrimidin-5-yl)methyl]piperidin-4-yl}-6-(3-fluorophenyl)nicotinamide]	2.03
Cc1cc(C)n(-c2cccc(CN3CCC(NC(=O)c4ccc(-c5cccc(F)c5)nc4)CC3)c2)n1 [Example 369, N-{1-[3-(3,5-Dimethyl-1H-pyrazol-1-yl)benzyl]piperidin-4-yl}-6-(3-fluorophenyl)nicotinamide]	1.36
O=C(NC1CCN(Cc2cc(F)cc3c2OCOC3)CC1)c1ccc(-c2cccc(F)c2)nc1 [Example 370, N-{1-[(6-Fluoro-4H-1,3-benzodioxin-8-yl)methyl]piperidin-4-yl}-6-(3-fluorophenyl)nicotinamide]	0.456
O=C(NC1CCN(Cc2cccc3nsnc23)CC1)c1ccc(-c2cccc(F)c2)nc1 [Example 371, N-[1-(2,1,3-Benzothiadiazol-4-ylmethyl)piperidin-4-yl]-6-(3-fluorophenyl)nicotinamide]	0.438
Cc1cc(CN2CCC(NC(=O)c3ccc(-c4cccc(F)c4)nc3)CC2)n(C)n1 [Example 372, N-{1-[(1,3-Dimethyl-1H-pyrazol-5-yl)methyl]piperidin-4-yl}-6-(3-fluorophenyl)nicotinamide]	0.981
O=C(NC1CCN(Cc2ccc(=O)[nH]c2)CC1)c1ccc(-c2cccc(F)c2)nc1 [Example 378, 6-(3-Fluorophenyl)-N-{1-[(6-oxo-16-dihydropyridin-3-yl)methyl]piperidin-4-yl}nicotinamide]	1.41
CCOC(=O)c1cn2c(CN3CCC(NC(=O)c4ccc(-c5cccc(F)c5)nc4)CC3)cccc2n1 [Example 379, Ethyl 5-{[4-({[6-(3-fluorophenyl)pyridin-3-yl]carbonyl}amino)piperidin-1-yl]methyl}imidazo[1,2-a]pyridine-2-carboxylate]	1.43
O=C(NC1CCN(Cc2cccc(-c3cncnc3)c2)CC1)c1ccc(-c2cccc(F)c2)nc1 [Example 381, 6-(3-Fluorophenyl)-N-[1-(3-pyrimidin-5-ylbenzyl)piperidin-4-yl]nicotinamide]	0.0854
O=C(NC1CCN(Cc2cn[nH]c2-c2ccccc2Cl)CC1)c1ccc(-c2cccc(F)c2)nc1 [Example 382, N-(1-{[5-(2-Chlorophenyl)-1H-pyrazol-4-yl]methyl}piperidin-4-yl)-6-(3-fluorophenyl)nicotinamide]	0.681
N#CC1(c2ccc(CN3CCC(NC(=O)c4ccc(-c5cccc(F)c5)nc4)CC3)cc2)CC=CC1 [Example 385, N-{1-[4-(1-Cyanocyclopent-3-en-1-yl)benzyl]piperidin-4-yl}-6-(3-fluorophenyl)nicotinamide]	11.7
O=C(NC1CCN(Cc2cnn3c2CCCC3)CC1)c1ccc(-c2cccc(F)c2)nc1 [Example 386, 6-(3-Fluorophenyl)-N-[1-(4,5,6,7-tetrahydropyrazolo[1,5-a]pyridin-3-ylmethyl)piperidin-4-yl]nicotinamide]	1.2
O=C(NC1CCN(Cc2cnn3c2CCCCC3)CC1)c1ccc(-c2cccc(F)c2)nc1 [Example 387, 6-(3-Fluorophenyl)-N-[1-(5,6,7,8-tetrahydro-4H-pyrazolo[1,5-a]azepin-3-ylmethyl)piperidin-4-yl]nicotinamide]	1.85
CCc1noc(COc2cccc(CN3CCC(NC(=O)c4ccc(-c5cccc(F)c5)nc4)CC3)c2)n1 [Example 388, N-(1-{3-[(3-Ethyl-1,2,4-oxadiazol-5-yl)methoxy]benzyl}piperidin-4-yl)-6-(3-fluorophenyl)nicotinamide]	0.951
